According to patent US20260285875A1, “INHIBITORS OF PARG” (858 Therapeutics, Inc., priority 2023, published 2026):

biological target: T1, cellular PARG (Homo sapiens, UniProt Q86W56); assay: Nuclear PAR accumulation assay (immunofluorescence high-content imaging, MMS-treated HeLa cells); type: cell-based; details: 1 hour compound then MMS 50 μg/mL for an additional hour
T1 construct: endogenous in cells; host or cells: HeLa
How it was run: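 HeLa cells pretreated with compound for 1 h at 37° C, then given 50 μg/mL MMS for another hour. After methanol fixation, PAR was immunostained with DAPI nuclear counterstain; per-nucleus intensity and percent PAR-positive cells were imaged at 20× (≥1,000 cells/well). IC50 from four-parameter logistic fit.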

T1 sequence (Q86W56 whole entry): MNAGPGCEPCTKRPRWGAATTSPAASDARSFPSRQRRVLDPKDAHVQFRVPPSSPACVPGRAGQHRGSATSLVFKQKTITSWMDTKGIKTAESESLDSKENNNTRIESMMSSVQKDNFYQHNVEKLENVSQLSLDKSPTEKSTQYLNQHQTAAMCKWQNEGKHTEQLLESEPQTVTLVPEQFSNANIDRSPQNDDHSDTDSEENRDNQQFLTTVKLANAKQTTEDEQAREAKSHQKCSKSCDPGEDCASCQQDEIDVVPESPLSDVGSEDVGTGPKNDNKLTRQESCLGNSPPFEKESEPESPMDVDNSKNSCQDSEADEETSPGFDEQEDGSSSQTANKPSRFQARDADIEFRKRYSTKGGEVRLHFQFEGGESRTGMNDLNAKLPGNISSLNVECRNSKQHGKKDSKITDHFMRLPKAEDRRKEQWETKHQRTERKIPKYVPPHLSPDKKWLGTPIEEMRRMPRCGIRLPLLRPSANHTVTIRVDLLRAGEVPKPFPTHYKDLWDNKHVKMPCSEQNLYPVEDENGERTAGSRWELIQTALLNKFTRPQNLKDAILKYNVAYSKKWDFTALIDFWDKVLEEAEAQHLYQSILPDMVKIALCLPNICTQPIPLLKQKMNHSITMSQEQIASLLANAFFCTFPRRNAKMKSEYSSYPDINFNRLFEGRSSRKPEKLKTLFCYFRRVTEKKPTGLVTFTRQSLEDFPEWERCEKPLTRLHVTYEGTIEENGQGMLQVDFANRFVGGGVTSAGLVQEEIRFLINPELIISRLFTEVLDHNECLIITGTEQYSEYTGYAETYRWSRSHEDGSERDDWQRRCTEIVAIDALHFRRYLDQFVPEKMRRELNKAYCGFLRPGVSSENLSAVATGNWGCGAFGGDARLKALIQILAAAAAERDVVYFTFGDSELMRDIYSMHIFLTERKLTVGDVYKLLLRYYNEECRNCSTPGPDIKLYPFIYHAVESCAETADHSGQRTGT

SMILES	IC50
CCN1C(=O)c2cc(S(=O)(=O)NC3(C)CC3)ccc2N2C1=NC[C@H]2C#Cc1cnn(C)n1 [Example 187, (R)-4-ethyl-I-((2-methyl-2H-1,2,3-triazol-4-yl)ethynyl)-N-(1-methylcyclopropyl)-5-oxo-1,2,4,5-tetrahydroimidazo[1,2-a]quinazoline-7-sulfonamide]	< 100 nM
CCN1C(=O)c2cc(S(=O)(=O)NC3(C)CC3)ccc2N2C1=NC[C@H]2C#CC1CC1 [Example 188, (R)-1-(cyclopropylethynyl)-4-ethyl-N-(1-methylcyclopropyl)-5-oxo-1,2,4,5-tetrahydroimidazo[1,2-a]quinazoline-7-sulfonamide]	< 100 nM
CCN1C(=O)c2cc(S(=O)(=O)NC3(C)CC3)ccc2N2C1=NC[C@H]2C#Cc1cnc2cccnn12 [Example 189, (R)-4-ethyl-1-(imidazo[1,2-b]pyridazin-3-ylethynyl)-N-(1-methylcyclopropyl)-5-oxo-1,2,4,5-tetrahydroimidazo[1,2-a]quinazoline-7-sulfonamide]	< 100 nM
CCN1C(=O)c2cc(S(=O)(=O)NC3(C)CC3)ccc2N2C1=NC[C@H]2C#Cc1cnn2cccnc12 [Example 190, (R)-4-ethyl-N-(1-methylcyclopropyl)-5-oxo-1-(pyrazolo[1,5-a]pyrimidin-3-ylethynyl)-1,2,4,5-tetrahydroimidazo[1,2-a]quinazoline-7-sulfonamide]	< 100 nM
CCN1C(=O)c2cc(S(=O)(=O)NC3(C)CC3)ccc2N2C1=NC[C@H]2C#Cc1cnc2cc(CN(C)C)cnn12 [Example 191, (R)-1-((7-((dimethylamino)methyl)imidazo[1,2-b]pyridazin-3-yl)ethynyl)-4-ethyl-N-(1-methylcyclopropyl)-5-oxo-1,2,4,5-tetrahydroimidazo[1,2-a]quinazoline-7-sulfonamide]	< 100 nM
Cc1cc(C#C[C@@H]2CN=C3N(Cc4cnn(C)c4)C(=O)c4cc(S(=O)(=O)NC5(C)CC5)ccc4N32)n(C)n1 [Example 192, (R)-1-((1,3-dimethyl-1H-pyrazol-5-yl)ethynyl)-4-((1-methyl-1H-pyrazol-4-yl)methyl)-N-(1-methylcyclopropyl)-5-oxo-1,2,4,5-tetrahydroimidazo[1,2-a]quinazoline-7-sulfonamide]	< 100 nM
Cn1cc(CN2C(=O)c3cc(S(=O)(=O)NC4(C)CC4)ccc3N3C2=NC[C@H]3C#Cc2ccnn2C2CC2)cn1 [Example 193, (R)-1-((1-cyclopropyl-1H-pyrazol-5-yl)ethynyl)-4-((1-methyl-1H-pyrazol-4-yl)methyl)-N-(1-methylcyclopropyl)-5-oxo-1,2,4,5-tetrahydroimidazo[1,2-a]quinazoline-7-sulfonamide]	< 100 nM
Cc1cc(C#C[C@@H]2CN=C3N(Cc4cnn(C)c4)C(=O)c4cc(S(=O)(=O)NC5(C)CC5)ccc4N32)sn1 [Example 194, (R)-4-((1-methyl-1H-pyrazol-4-yl)methyl)-N-(1-methylcyclopropyl)-1-((3-methylisothiazol-5-yl)ethynyl)-5-oxo-1,2,4,5-tetrahydroimidazo[1,2-a]quinazoline-7-sulfonamide]	< 100 nM
CCN1C(=O)c2cc(S(=O)(=O)NC3(C)CC3)ccc2N2C1=NC[C@H]2C#Cc1cc(CN(C)C)nn1C [Example 195, (R)-1-((3-((dimethylamino)methyl)-1-methyl-1H-pyrazol-5-yl)ethynyl)-4-ethyl-N-(1-methylcyclopropyl)-5-oxo-1,2,4,5-tetrahydroimidazo[1,2-a]quinazoline-7-sulfonamide]	< 100 nM
Cn1cc(CN2C(=O)c3cc(S(=O)(=O)NC4(C)CC4)ccc3N3C2=NC[C@H]3C#Cc2ncnn2C)cn1 [Example 196, (R)-1-((1-methyl-1H-1,2,4-triazol-5-yl)ethynyl)-4-((1-methyl-1H-pyrazol-4-yl)methyl)-N-(1-methylcyclopropyl)-5-oxo-1,2,4,5-tetrahydroimidazo[1,2-a]quinazoline-7-sulfonamide]	< 100 nM
CCN1C(=O)c2cc(S(=O)(=O)NC3(C)CC3)ccc2N2C1=NC[C@H]2C#Cc1ccnn1C [Example 198, (R)-4-ethyl-1-((1-methyl-1H-pyrazol-5-yl)ethynyl)-N-(1-methylcyclopropyl)-5-oxo-1,2,4,5-tetrahydroimidazo[1,2-a]quinazoline-7-sulfonamide]	< 100 nM
CN1C(=O)c2cc(S(=O)(=O)NC3(C)CC3)ccc2N2C1=NC[C@H]2C#Cc1cnn(C)c(=O)c1 [Example 199, (R)-4-methyl-1-((1-methyl-6-oxo-1,6-dihydropyridazin-4-yl)ethynyl)-N-(1-methylcyclopropyl)-5-oxo-1,2,4,5-tetrahydroimidazo[1,2-a]quinazoline-7-sulfonamide]	< 100 nM
CN1C(=O)c2cc(S(=O)(=O)NC3(C)CC3)ccc2N2C1=NCC2C#Cc1ccn(C)c(=O)c1 (stereo not shown) [Example 200, 4-methyl-1-((1-methyl-2-oxo-1,2-dihydropyridin-4-yl)ethynyl)-N-(1-methylcyclopropyl)-5-oxo-1,2,4,5-tetrahydroimidazo[1,2-a]quinazoline-7-sulfonamide]	100 to 1000 nM
CN1C(=O)c2cc(S(=O)(=O)NC3(C)CC3)ccc2N2C1=NC[C@H]2C#Cc1cnc2ccc(C(F)(F)F)nn12 [Example 201, (R)-4-methyl-N-(1-methylcyclopropyl)-5-oxo-1-((6-(trifluoromethyl)imidazo[1,2-b]pyridazin-3-yl)ethynyl)-1,2,4,5-tetrahydroimidazo[1,2-a]quinazoline-7-sulfonamide]	< 100 nM
CN1C(=O)c2cc(S(=O)(=O)NC3(C)CC3)ccc2N2C1=NCC2C#Cc1ccc(C#N)nc1 (stereo not shown) [Example 202, 1-((6-cyanopyridin-3-yl)ethynyl)-4-methyl-N-(1-methylcyclopropyl)-5-oxo-1,2,4,5-tetrahydroimidazo[1,2-a]quinazoline-7-sulfonamide]	< 100 nM
Cc1ccc(C#CC2CN=C3N(C)C(=O)c4cc(S(=O)(=O)NC5(C)CC5)ccc4N32)cn1 (stereo not shown) [Example 203, 4-methyl-N-(1-methylcyclopropyl)-1-((6-methylpyridin-3-yl)ethynyl)-5-oxo-1,2,4,5-tetrahydroimidazo[1,2-a]quinazoline-7-sulfonamide]	< 100 nM
COc1ccc(C#CC2CN=C3N(C)C(=O)c4cc(S(=O)(=O)NC5(C)CC5)ccc4N32)cn1 (stereo not shown) [Example 204, 1-((6-methoxypyridin-3-yl)ethynyl)-4-methyl-N-(1-methylcyclopropyl)-5-oxo-1,2,4,5-tetrahydroimidazo[1,2-a]quinazoline-7-sulfonamide]	< 100 nM
CCN1C(=O)c2cc(S(=O)(=O)NC3(C)CC3)ccc2N2C1=NC[C@H]2C#Cc1cnn2c1OCC(NC)C2 (stereo partly drawn) [Example 205, (1R)-4-ethyl-1-((6-(methylamino)-6,7-dihydro-5H-pyrazolo[5,i-b][1,3]oxazin-3-yl)ethynyl)-N-(1-methylcyclopropyl)-5-oxo-1,2,4,5-tetrahydroimidazo[1,2-a]quinazoline-7-sulfonamide]	100 to 1000 nM
CCN1C(=O)c2cc(S(=O)(=O)NC3(C)CC3)ccc2N2C1=NC[C@H]2C#Cc1cnc2cc(C#N)cnn12 [Example 206, (R)-1-((7-cyanoimidazo[1,2-b]pyridazin-3-yl)ethynyl)-4-ethyl-N-(1-methylcyclopropyl)-5-oxo-1,2,4,5-tetrahydroimidazo[1,2-a]quinazoline-7-sulfonamide]	< 100 nM
CCn1nccc1C#C[C@@H]1CN=C2N(Cc3cnn(C)c3)C(=O)c3cc(S(=O)(=O)NC4(C)CC4)ccc3N21 [Example 207, (R)-1-((1-ethyl-1H-pyrazol-5-yl)ethynyl)-4-((1-methyl-1H-pyrazol-4-yl)methyl)-N-(1-methylcyclopropyl)-5-oxo-1,2,4,5-tetrahydroimidazo[1,2-a]quinazoline-7-sulfonamide]	< 100 nM
CCN1C(=O)c2cc(S(=O)(=O)NC3(C)CC3)ccc2N2C1=NC[C@H]2C#Cc1c2ncccc2nn1C [Example 208, (R)-4-ethyl-1-((2-methyl-2H-pyrazolo[4,3-b]pyridin-3-yl)ethynyl)-N-(1-methylcyclopropyl)-5-oxo-1,2,4,5-tetrahydroimidazo[1,2-a]quinazoline-7-sulfonamide]	< 100 nM
CN1C(=O)c2cc(S(=O)(=O)NC3(C)CC3)ccc2N2C1=NCC2C#Cc1cnc2cc(C(F)(F)F)cnn12 (stereo not shown) [Example 209, 4-methyl-N-(1-methylcyclopropyl)-5-oxo-1-((7-(trifluoromethyl)imidazo[1,2-b]pyridazin-3-yl)ethynyl)-1,2,4,5-tetrahydroimidazo[1,2-a]quinazoline-7-sulfonamide]	< 100 nM
Cn1cc(CN2C(=O)c3cc(S(=O)(=O)NC4(C)CC4)ccc3N3C2=NC[C@H]3C#Cc2ccnn2C(F)F)cn1 [Example 210, (R)-1-((1-(difluoromethyl)-1H-pyrazol-5-yl)ethynyl)-4-((1-methyl-1H-pyrazol-4-yl)methyl)-N-(1-methylcyclopropyl)-5-oxo-1,2,4,5-tetrahydroimidazo[1,2-a]quinazoline-7-sulfonamide]	< 100 nM
[2H]C([2H])([2H])n1nccc1C#C[C@@H]1CN=C2N(Cc3cnn(C)c3)C(=O)c3cc(S(=O)(=O)NC4(C)CC4)ccc3N21 [Example 211, (R)-4-((1-methyl-1H-pyrazol-4-yl)methyl)-1-((1-(methyl-d3)-1H-pyrazol-5-yl)ethynyl)-N-(1-methylcyclopropyl)-5-oxo-1,2,4,5-tetrahydroimidazo[1,2-a]quinazoline-7-sulfonamide]	< 100 nM
[2H]C([2H])(c1cnn(C)c1)N1C(=O)c2cc(S(=O)(=O)NC3(C)CC3)c(F)cc2N2C1=N[C@H]1CCC[C@H]12 [Example 212, (7aS,10aR)-2-fluoro-6-((1-methyl-1H-pyrazol-4-yl)methyl-d2)-N-(1-methylcyclopropyl)-5-oxo-6,7a,8,9,10,10a-hexahydro-5H-cyclopenta[4,5]imidazo[1,2-a]quinazoline-3-sulfonamide]	< 100 nM
